In publication PMC11571207, “Stereorandomized Oncocins with Preserved Ribosome Binding and Antibacterial Activity” (Journal of Medicinal Chemistry, 2024):
Values after ≈ are worked out from the molar mass of the structure shown. Non-standard residues stand in square brackets, D forms with d. Residues, ends and D or L forms follow the SMILES beside them. No end group written: not given here.

How the values were obtained:
A. baumannii ATCC19606 = assay: microbe, parasite or virus in culture; conditions: for MIC A. baumannii, 12.5% MHB / MIC A. baumannii, Full MHB: A. baumannii ATCC19606, 16–20 h at 37 °C; for MIC A. baumannii, 12.5% MHB: 12.5% Müller–Hinton medium; for MIC A. baumannii, Full MHB: full Müller–Hinton medium; for MIC A. baumannii ATCC19606: supplement CSV
In short: (§1)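 Read-out was visible growth after MTT addition, the MIC being the lowest inhibitory peptide concentration. Bacteria grown to log phase in LB were exposed in MH medium to peptide from 64 μg/mL in twofold dilutions for 15-18h at 37°C.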

E. coli W3110 = assay: microbe, parasite or virus in culture; conditions: for MIC E. coli, 12.5% MHB / MIC E. coli, Full MHB: E. coli W3110, 16–20 h at 37 °C, broth microdilution; for MIC E. coli, 12.5% MHB: 12.5% Müller–Hinton medium; for MIC E. coli, Full MHB: full Müller–Hinton medium; for MIC E. coli W3110: supplement CSV
In short: as §1

K. pneumoniae NCTC 418 = assay: microbe, parasite or virus in culture; conditions: for MIC K. pneumoniae, 12.5% MHB / MIC K. pneumoniae, Full MHB: K. pneumoniae NCTC 418, 16–20 h at 37 °C; for MIC K. pneumoniae, 12.5% MHB: 12.5% Müller–Hinton medium; for MIC K. pneumoniae, Full MHB: full Müller–Hinton medium; for MIC K. pneumoniae NCTC418: supplement CSV
In short: as §1

P. aeruginosa PAO1 = assay: microbe, parasite or virus in culture; conditions: for MIC P. aeruginosa, 12.5% MHB / MIC P. aeruginosa, Full MHB: P. aeruginosa PAO1, 16–20 h at 37 °C; for MIC P. aeruginosa, 12.5% MHB: 12.5% Müller–Hinton medium; for MIC P. aeruginosa, Full MHB: full Müller–Hinton medium; for MIC P. aeruginosa PAO1: supplement CSV
In short: as §1

S. aureus COL (MRSA) = assay: microbe, parasite or virus in culture; conditions: for MIC S. aureus, 12.5% MHB / MIC S. aureus, Full MHB: S. aureus COL (MRSA), 16–20 h at 37 °C; for MIC S. aureus, 12.5% MHB: 12.5% Müller–Hinton medium; for MIC S. aureus, Full MHB: full Müller–Hinton medium; for MIC S. aureus COL (MRSA): supplement CSV
In short: as §1

human red blood cells = assay: Hemolysis assay, minimum hemolytic concentration; conditions: for Haemolysis on hRBC, MHC: 2.5% human red blood cells (final) in 10 mM phosphate, 150 mM NaCl, pH 7.4, 25 °C, 4 h, visual inspection; for MHC human red blood cells: supplement CSV

Compound	MIC A. baumannii, 12.5% MHB (A. baumannii ATCC19606) [µg/mL]	MIC A. baumannii, Full MHB (A. baumannii ATCC19606) [µg/mL]	MIC A. baumannii ATCC19606 (A. baumannii ATCC19606; 12.5% MH pH 7.4) [µg/mL]	MIC A. baumannii ATCC19606 (A. baumannii ATCC19606; full MH pH 7.4) [µg/mL]	MIC E. coli, 12.5% MHB (E. coli W3110) [µg/mL]	MIC E. coli, Full MHB (E. coli W3110) [µg/mL]	MIC E. coli W3110 (E. coli W3110; 12.5% MH pH 7.4) [µg/mL]	MIC E. coli W3110 (E. coli W3110; full MH pH 7.4) [µg/mL]	MIC K. pneumoniae, 12.5% MHB (K. pneumoniae NCTC 418) [µg/mL]	MIC K. pneumoniae, Full MHB (K. pneumoniae NCTC 418) [µg/mL]	MIC K. pneumoniae NCTC418 (K. pneumoniae NCTC 418; 12.5% MH pH 7.4) [µg/mL]	MIC K. pneumoniae NCTC418 (K. pneumoniae NCTC 418; full MH pH 7.4) [µg/mL]	MIC P. aeruginosa, 12.5% MHB (P. aeruginosa PAO1) [µg/mL]	MIC P. aeruginosa, Full MHB (P. aeruginosa PAO1) [µg/mL]	MIC P. aeruginosa PAO1 (P. aeruginosa PAO1; 12.5% MH pH 7.4) [µg/mL]	MIC P. aeruginosa PAO1 (P. aeruginosa PAO1; full MH pH 7.4) [µg/mL]	MIC S. aureus, 12.5% MHB (S. aureus COL (MRSA))	MIC S. aureus, Full MHB (S. aureus COL (MRSA))	MIC S. aureus COL (MRSA) (S. aureus COL (MRSA); 12.5% MH pH 7.4) [µg/mL]	MIC S. aureus COL (MRSA) (S. aureus COL (MRSA); full MH pH 7.4) [µg/mL]	other results
CC[C@H](C)[C@H](NC(=O)[C@H](CCCNC(=N)N)NC(=O)[C@H](CCCNC(=N)N)NC(=O)[C@@H]1CCCN1C(=O)[C@@H]1CCCN1C(=O)[C@H](CCCNC(=N)N)NC(=O)[C@@H]1CCCN1C(=O)[C@H](CCCNC(=N)N)NC(=O)[C@H]1CCCN1C(=O)[C@H](CC(C)C)NC(=O)[C@H](Cc1ccc(O)cc1)NC(=O)[C@@H]1CCCN1C(=O)[C@@H]1CCCN1C(=O)[C@H](CCCCN)NC(=O)[C@H](CC(=O)O)NC(=O)[C@@H](N)C(C)C)C(=O)N[C@@H](Cc1ccc(O)cc1)C(=O)N[C@@H](CC(N)=O)C(=O)N[C@@H](CCCNC(=N)N)C(N)=O [DP8-Onc] (H-VDKPPYL[dP]RPRPPRRIYNR-NH2)	16 (≈ 6.69 µM)	> 64	16 (≈ 6.69 µM)	>64	4 (≈ 1.67 µM)	32 (≈ 13.4 µM)	4 (≈ 1.67 µM)	32 (≈ 13.4 µM)	16 (≈ 6.69 µM)	> 64	16 (≈ 6.69 µM)	>64	16 (≈ 6.69 µM)	> 64	16 (≈ 6.69 µM)	>64	>64 / 64 μg/mL	>64 / 64 μg/mL	64 (≈ 26.8 µM)	>64	Haemolysis on hRBC, MHC (human red blood cells): >1000 µg/mL; MHC human red blood cells (human red blood cells): >1000 µg/mL
VDKPPYLPRPRPPRRIYNR [sr11Cterm-Onc] (VDKPPYLPRPRPPRRIYNR-NH2; also: residues 9-19 stereorandomized (1:1 L/D mixture))	4	32	4	32	4	16	4	16	4	16	4	16	8	> 64	8	>64	>64 / 64 μg/mL	>64 / 64 μg/mL	64	>64	Haemolysis on hRBC, MHC (human red blood cells): >1000 µg/mL; MHC human red blood cells (human red blood cells): >1000 µg/mL
CC[C@H](C)[C@H](NC(=O)[C@H](CCCNC(=N)N)NC(=O)[C@H](CCCNC(=N)N)NC(=O)[C@@H]1CCCN1C(=O)[C@@H]1CCCN1C(=O)[C@H](CCCNC(=N)N)NC(=O)[C@@H]1CCCN1C(=O)[C@H](CCCNC(=N)N)NC(=O)[C@@H]1CCCN1C(=O)[C@H](CC(C)C)NC(=O)[C@H](Cc1ccc(O)cc1)NC(=O)[C@H]1CCCN1C(=O)[C@@H]1CCCN1C(=O)[C@H](CCCCN)NC(=O)[C@H](CC(=O)O)NC(=O)[C@@H](N)C(C)C)C(=O)N[C@@H](Cc1ccc(O)cc1)C(=O)N[C@@H](CC(N)=O)C(=O)N[C@@H](CCCNC(=N)N)C(N)=O [DP5-Onc] (H-VDKP[dP]YLPRPRPPRRIYNR-NH2)	16 (≈ 6.69 µM)	> 64	16 (≈ 6.69 µM)	>64	4 (≈ 1.67 µM)	32 (≈ 13.4 µM)	4 (≈ 1.67 µM)	32 (≈ 13.4 µM)	> 16	> 64	>16	>64	> 16	> 64	>16	>64	>64 / 64 μg/mL	>64 / 64 μg/mL	64 (≈ 26.8 µM)	>64	Haemolysis on hRBC, MHC (human red blood cells): >1000 µg/mL; MHC human red blood cells (human red blood cells): >1000 µg/mL
VDKPPYLPRPRPPRRIYNR [sr7Cterm-Onc] (VDKPPYLPRPRPPRRIYNR-NH2; also: residues 13-19 stereorandomized (1:1 L/D mixture))	4	32	4	32	1	8	1	8	1	4	1	4	4	64	4	64	> 16 µg/mL	> 64 µg/mL	>16	>64	Haemolysis on hRBC, MHC (human red blood cells): >1000 µg/mL; MHC human red blood cells (human red blood cells): >1000 µg/mL
CC[C@H](C)[C@H](NC(=O)[C@H](CCCNC(=N)N)NC(=O)[C@H](CCCNC(=N)N)NC(=O)[C@@H]1CCCN1C(=O)[C@@H]1CCCN1C(=O)[C@H](CCCNC(=N)N)NC(=O)[C@@H]1CCCN1C(=O)[C@@H](CCCNC(=N)N)NC(=O)[C@@H]1CCCN1C(=O)[C@H](CC(C)C)NC(=O)[C@H](Cc1ccc(O)cc1)NC(=O)[C@@H]1CCCN1C(=O)[C@@H]1CCCN1C(=O)[C@H](CCCCN)NC(=O)[C@H](CC(=O)O)NC(=O)[C@@H](N)C(C)C)C(=O)N[C@@H](Cc1ccc(O)cc1)C(=O)N[C@@H](CC(N)=O)C(=O)N[C@@H](CCCNC(=N)N)C(N)=O [DR9-Onc] (H-VDKPPYLP[dR]PRPPRRIYNR-NH2)	8 (≈ 3.35 µM)	> 64	8 (≈ 3.35 µM)	>64	4 (≈ 1.67 µM)	16 (≈ 6.69 µM)	4 (≈ 1.67 µM)	16 (≈ 6.69 µM)	4 (≈ 1.67 µM)	16 (≈ 6.69 µM)	4 (≈ 1.67 µM)	16 (≈ 6.69 µM)	32 (≈ 13.4 µM)	> 64	32 (≈ 13.4 µM)	>64	>64 / >64 μg/mL	>64 / >64 μg/mL	>64	>64	Haemolysis on hRBC, MHC (human red blood cells): >1000 µg/mL; MHC human red blood cells (human red blood cells): >1000 µg/mL
VDKPPYLPRPRPPRRIYNR [srP45-Onc] (VDKPPYLPRPRPPRRIYNR-NH2; also: residues 4-5 (Pro-Pro) stereorandomized (1:1 L/D mixture))	8	64	8	64	4	16	4	16	8	16	8	16	> 16	> 64	>16	>64	>64 / 64 μg/mL	>64 / 64 μg/mL	64	>64	Haemolysis on hRBC, MHC (human red blood cells): >1000 µg/mL; MHC human red blood cells (human red blood cells): >1000 µg/mL
VDKPPYLPRPRPPRRIYNR [sr12Cterm-Onc] (VDKPPYLPRPRPPRRIYNR-NH2; also: residues 8-19 stereorandomized (1:1 L/D mixture))	8	32	8	32	8	16	8	16	8	16	8	16	8	> 64	8	>64	>64 / 64 μg/mL	>64 / 64 μg/mL	64	>64	Haemolysis on hRBC, MHC (human red blood cells): >1000 µg/mL; MHC human red blood cells (human red blood cells): >1000 µg/mL
